# Source: patent US20240189317A1, “ANTIVIRAL COMPOSITIONS AND METHODS” (AI Therapeutics, Inc., priority 2021, published 2024)
# Like-named read-outs stand apart in the source and are kept apart here.
# Test system: SARS-CoV-2 (USA-WA1/2020)
# Assay type: cell-based
# Settings: Caco-2 cells, vs DMSO controls
structure (smiles),measurement,setting,value
Cc1cccc(/C=N/Nc2cc(N3CCOCC3)nc(OCCc3ccccn3)n2)c1 [Apilimod],Percent Infection (Exp 1),apilimod 31.25 nM single agent,93.632%
same,Percent Infection (Exp 2),apilimod 31.25 nM single agent,74.342%
same,Percent Infection (Exp 1),apilimod 62.5 nM single agent,75.308%
same,Percent Infection (Exp 2),apilimod 62.5 nM single agent,53.914%
same,Percent Infection (Exp 1),apilimod 125 nM single agent,35.618%
same,Percent Infection (Exp 2),apilimod 125 nM single agent,37.259%
same,Percent Infection (Exp 1),apilimod 250 nM single agent,11.935%
same,Percent Infection (Exp 2),apilimod 250 nM single agent,29.685%
same,Percent Infection (Exp 1),apilimod 500 nM single agent,12.267%
same,Percent Infection (Exp 2),apilimod 500 nM single agent,18.730%
same,Percent Infection (Exp 1),apilimod 1000 nM single agent,4.524%
same,Percent Infection (Exp 2),apilimod 1000 nM single agent,2.968%
same,Percent Infection (Exp 1),apilimod 2000 nM single agent,0.591%
same,Percent Infection (Exp 2),apilimod 2000 nM single agent,0.297%
